Data reported in patent US20220235012A1, “ACID ADDITION SALT OF PYRIMETHAMINE” (GLG PHARMA S.A., priority 2018, published 2022).
Counter-ions that a name gives are not always drawn.

How the values were obtained:
[1] = Solubility of pyrimethamine salts, own method at 20° C. and 60° C. in water, 10% Tween 80 and 10% Cremophor RH 40; assay type: physicochemical; details: without surfactant and/or emulsifier
[2] = Solubility in terms of Ph. Eur. 9.2 (approximate volume of solvent per gram of solute); assay type: physicochemical; details: descriptive term
Experimental: The solubility of pyrimethamine salts with different organic and mineral acids was evaluated according to the general recommendations described in Ph. Eur. 9.2 for the pharmaceutical active ingredients. The “solubility” ° according to Ph. Eur. 9.2, is the approximate volume of solvent in millilitres per gram of solute.

[3] = cited from earlier work

solubility in water at ambient temperature [1]	Solubility in terms of Ph. Eur. 9.2 [2]	SMILES	solubility of pyrimethamine in water [3] [µg/mL]
freely soluble	Sparingly soluble	CCc1nc(N)nc(N)c1-c1ccc(Cl)cc1 [Methanesulfonate, methanesulfonic acid salt of 5-(4-chlorophenyl)-6-ethyl-2,4-pyrimidinediamine]	–
–	–	CCc1nc(N)nc(N)c1-c1ccc(Cl)cc1 [pyrimethamine, 5-(4-chlorophenyl)-6-ethyl-2,4-pyrimidinediamine]	10
